Measured values from US9024022B2, “Substrates of O6-alkylguanine-DNA alkyltransferase and mutants thereof” (Cis Bio International, priority 2008, dated 2015).

Target: T1, N-AGT enzyme (AGT-mGluR2 fusion protein) (Homo sapiens, UniProt P16455)
T1 construct: fused on or other part: type 2 metabotropic glutamate receptor (mGluR2)
Test: Enzymatic reactivity test in a cell model, N-AGT mutant
Assay type: cell-based
Conditions: living cells, N-AGT mutant; labeling 1 h at 37° C.; read-out: half saturation concentration of the enzyme
Description: This procedure makes it possible to test the reactivity of substrates according to the invention with an AGT expressed by COS 7 cells in the form of a fusion protein with the type 2 glutamate transmembrane receptor (mGluR2).
Various mutants of AGT were analyzed in this study: SNAP-tag-ST26 or CLIP-tag from Covalys or the N-AGT mutant described by Gronemeyer et al. (Protein Engineering, Design & Selection, Vol. 19, No. 7, pp. 309-316, 2006).
The transient transfection of the cells is carried out by electroporation using a Biorad electroporator: 10 million cells are transfected by 1 μg SNAP-tag-mGluR2+3 μg pcdna3.1 in a final volume of 300 μl. The electroporation parameters are: 280 V & 1000 μF. […]
The labeling of the AGT-mGluR2 fusion protein takes place in 100 μl of complete medium with increasing concentrations of BG-fluorophore or BG-L1-A-L2-fluorophore according to the invention for 1 h at 37° C. Before the reading, 4 washing operations are carried out with 100 μl of Tris-Krebs.
For the substrates bearing fluorophores ATTO647 (example 2), DY647 (examples 1 and 5) and fluorescein-5-EX (example 3), the reading is carried out in 100 μl of Tris-Krebs in direct fluorescence at 682 nm on a Rubystar machine, and at 520 nm for those bearing fluorescein-5-EX (example 3). […]

T1 sequence (P16455 whole entry, looked up, the tested form may be a part): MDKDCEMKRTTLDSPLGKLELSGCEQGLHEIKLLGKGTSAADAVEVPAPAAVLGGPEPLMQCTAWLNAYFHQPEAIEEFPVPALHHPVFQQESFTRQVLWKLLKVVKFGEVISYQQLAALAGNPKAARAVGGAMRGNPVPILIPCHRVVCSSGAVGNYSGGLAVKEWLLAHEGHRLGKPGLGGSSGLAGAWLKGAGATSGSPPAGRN

For “Tb(KR)-methylbenzamide-BG [BG-methylbenzamide-Tb(KR)]”, the EC50 was 6.4 nM.
